Results reported in patent US7449114B2, “Halogenated solvent remediation” (SRP Technologies, Inc., priority 2000, dated 2008).

Key:
[1] = Surface tension of electron donor solutions, pendant drop method; type: physicochemical; conditions: for change in surface tension: 0% ethyl lactate
Method: (§1) Based on the field results presented in Example 1, laboratory studies were performed to confirm that the enhanced bioavailability of TCE observed in the field was due to co-solvent or surfactant behavior resulting from the use of high concentrations of sodium lactate. Two fundamental properties used to screen the co-solvent or surfactant properties of a solution are surface tension and interfacial tension. Surface tension measures the force per unit length along the interface between a liquid and air due to its tension. When a co-solvent or surfactant is present in an aqueous liquid at increasing concentrations, the surface tension of that liquid decreases. Interfacial tension is similar to surface tension except that it measures the force per unit length along the interface between two liquid phases arising from the surface free energy. The higher the interfacial tension between two liquids, the less likely one is to dissolve into the other, and the more difficult it is for one to be transported within the other. […]
The laboratory study performed to confirm the co-solvent properties of the high concentration electron donor solution measured the surface tension of electron donor solutions at various concentrations. Next, interfacial tensions between the same electron donor solutions and nonaqueous phase TCE were measured. […] Surface and interfacial tension measurements were made using the pendant drop method (M. J. Rosen, ed., Structure/Performance Relationships in Surfactants, American Chemical Society, Washington D.C. 329 (1984); R. D. Bagnall & P. A. Arundel, The Profile Area of Pendant Drops, 82 J. Phys. Chem. 898 (1978)) coupled with real-time video imaging (M. D. Herd et al., Interfacial Tensions of Microbial Surfactants Determined by Real-Time Video Imaging of Pendant Drops, Proceedings paper number SPE/DOE 24206 513-519, SPE/DOE Eighth Symposium on Enhanced Oil Recovery, Tulsa, Okla. (1992)). […]

[2] = Interfacial tension between electron donor solutions and nonaqueous phase TCE, pendant drop method; type: physicochemical; conditions: 0% ethyl lactate
Method: as §1
The laboratory study performed to confirm the co-solvent properties of the high concentration electron donor solution measured the surface tension of electron donor solutions at various concentrations. Next, interfacial tensions between the same electron donor solutions and nonaqueous phase TCE were measured. […]

[3] = test system: chloroethenes (primarily TCE) in ground water; assay: Field evaluation of enhanced in situ bioremediation, Test Area North (Example 1); conditions: all wells receiving significant lactate concentrations
Method: A 1-year field evaluation of enhanced in situ bioremediation was performed at Test Area North (“TAN”) of the Idaho National Engineering and Environmental Laboratory. […] The locations of a 5,000 μg/L TCE isopleth (14); 1,000 μg/L TCE isopleth (16); 100 μg/L TCE isopleth (18); and 5 μg/L TCE isopleth (20) are shown by solid lines. FIG. 2 illustrates a cross section of this site, showing the surface of the ground (22), an approximately 63-m (210-feet) fractured basalt unsaturation zone (24) (not drawn to scale), an approximately 60-m (200-feet) fractured basalt aquifer (26), and an impermeable clay interbed (28). […]
The initial electron donor addition strategy involved continuous injection of potable water at 37.85 liters/minute (10 gpm) into Well TSF-05. […] It was determined that the continuous injection of clean water at 37.85 liters/minute (10 gpm) overwhelmed the flux of contaminants from the secondary source. […] This was intended to prevent significant quantities of electron donor from collecting in the injection well and to help prevent biofouling. […]
Eleven monitoring wells (i.e., TAN-D2, TAN-9, TAN-10A, TAN-25, TAN-26, TAN-27, TAN-28, TAN-29, TAN-30A, TAN-31, and TAN-37) were sampled biweekly and analyzed for electron donors, biological activity indicators, competing inorganic electron acceptors and their reduced products, chloroethenes, ethene, pH, temperature, and specific conductivity.

[4] = test system: PCE/TCE plume in ground water; assay: Sodium lactate injection pilot test, Tennessee Air National Guard Site, Memphis (Example 3); conditions: after 8 months and 4 lactate injections
Excerpt: Site Background. A site-wide Remedial Investigation (RI) identified a chlorinated solvent plume in a sandy aquifer approximately 35 to 60 feet (10.7 to 18.3 m) below ground surface at the 164th Airlift Wing at the Tennessee Air National Guard Site, Memphis, Tenn. The plume area targeted for treatment was over 2 acres (0.81 hectares). This unconfined saturated interval is overlain by an inorganic loess vadose zone and is separated from the deeper regional aquifer by a clay unit. PCE concentrations ranged from 5 to 1,000 μg/L in the target area, while TCE ranged from 100 to greater than 15,000 μg/L in the injection/monitoring wells. […] A pilot test of a sodium lactate injection system to enhance natural reductive dechlorination in the groundwater was approved by the Tennessee Department of Environment and Conservation, the Memphis and Shelby County Health Department, and the Shelby County Ground Water Control Board.
System Design. A three-dimensional model to simulate groundwater flow was developed using the MODFLOW simulator (U.S. Geological Survey). Once calibrated, model simulations were used to determine the optimal injection well locations, as well as the rate and duration of injection. Based on the results of other sodium lactate injection sites, a period of 60 days between injections was assumed. The optimal configuration was determined to be a 9-well injection system at an injection rate of 10 gallons per minute (gpm; 37.8 liters/minute) for 5 days.
Potable water was mixed with 60% sodium lactate to create a 1% solution. An existing 8-inch (20.3-cm) water line was tapped and connected to the distribution control header via a 4-inch (10.2-cm) line, which was housed in a portable 12-ft×14-ft (3.6-m×4.3-m) building. A double-check valve assembly was installed on the 4-inch (10.2-cm)water line to prevent back-siphoning of the injection solution into the 8-inch (20.3-cm) potable water line. Following a mixing zone with the potable water, the resulting 1% solution was delivered to the nine injection wells. […]

[5] = test system: chlorinated ethenes (PCE, TCE) in groundwater; assay: Biostimulation pilot test, IR Site 40, Seal Beach (Example 4)
Method: A biostimulation pilot-test program for in situ anaerobic bioremediation of chlorinated ethenes in groundwater was conducted at Installation Restoration (IR) Program Site 40, Naval Weapons Station Seal Beach, Calif. IR Site 40 includes a concrete pit in a locomotive shop building and a gravel area north of and adjacent to the building. Oil and solvents spilled during locomotive maintenance collected in the pit and discharged to the gravel area via a drainpipe (FIG. 11). Groundwater was contaminated with chlorinated solvents, primarily PCE and trichloroethene (TCE). The plume extends over 100 meters (m) downgradient of the source area and is generally limited in extent to approximately 20 m below ground surface. The groundwater gradient is relatively flat and is influenced by tidal fluctuations. The net gradient direction is southeasterly. The Seal Beach National Wildlife Refuge lies downgradient of the site.
The tests were conducted in the area interpreted to have the highest PCE concentrations in groundwater. The tests were conducted over an 8-month period from August 2001 through mid-March 2002. Approximately 210,000 liters (55,500 gallons) of 3 percent sodium lactate solution was injected. A direct injection system was selected over recirculation to avoid reinjection of untreated water into the test cell. A 60 percent sodium lactate solution (JRW Technologies, Lenexa, Kans.) was diluted to 3 percent with potable water using a proportional injector (Dosatron International, Bordeaux, France). Lactate was injected at an average rate of approximately 3,550 gallons per week for the first 2 months. The average injection rate was then adjusted to approximately 750 gallons per week to maintain optimum electron-donor concentrations. No clogging or fouling effects were observed over the course of the pilot test. Water level measurements were performed during injection to assess the induced gradient.
Effects were monitored in seven wells in the pilot-test area. Two wells are located crossgradient and five downgradient of the injection well at distances ranging from approximately 2 to 30 m. Pretest groundwater samples were collected to establish baseline conditions. Weekly groundwater samples were collected during and analyzed on-site using field test kits for sulfate, ferrous iron, alkalinity, chemical oxygen demand (COD) (Hach, Loveland, Colo.), nitrate, and carbon dioxide (CHEMetrics, Calverton, Va.) and direct reading instrumentation for pH, temperature, conductivity, oxidation-reduction potential, and dissolved oxygen (YSI, Yellow Springs, Ohio). Monthly groundwater samples were analyzed off-site for volatile organic compounds, alkalinity, COD, anions, cations, total dissolved solids (Columbia Analytical Services, Kelso, Wash.), and dissolved gases (Performance Analytical, Simi Valley, Calif.). Samples were periodically analyzed for organic acids (Idaho National Engineering and Environmental Laboratory [INEEL], Idaho Falls, Id.), phospholipid fatty acids (Microbial Insights, Rockford, Tenn.), and DNA typing using quantitative polymerase chain reaction (PCR) and terminal restriction fragment length polymorphisms (T-RFLP) analyses (University of California, Berkeley, Calif.), according to methods well known in the art.

SMILES	effect on the solution's surface tension ([1]; 1% and 10% ethyl lactate added to sodium lactate solutions)	change in surface tension ([1]; sodium lactate 0.01 to 7%)	change in surface tension ([1]; sodium lactate increased to 30 and 60%)	interfacial tension as % of the value at 0.1% sodium lactate ([2]; sodium lactate 30%)	decrease of interfacial tension ([2]; sodium lactate increased from 0.1 to 3%)	reductive dechlorination of TCE to ethene [3]	TCE concentrations ([4]; 10 of 15 wells)	TCE concentration ([4]; well 03-010MW, pre-lactate around 5,690)	TCE concentration ([4]; well 03-020MW, pre-lactate around 4,600)	increase of PCE concentrations ([5]; at least one well, following injection)	reductive dechlorination of PCE and TCE ([5]; by the third month)	biomass (phospholipid fatty acid analysis) ([5]; close to the injection well)	radius of influence within which PCE was converted to DCE ([5]; crossgradient)	radius of influence within which PCE was converted to DCE ([5]; downgradient)
CCOC(=O)C(C)O (centres unmarked) [ethyl lactate]	pronounced effect	–	–	–	–	–	–	–	–	–	–	–	–	–
CC(O)C(=O)[O-].[Na+] (centres unmarked) [sodium lactate]	–	almost no change	dramatic decrease	47%	about 26%	Enhanced reductive dechlorination of TCE to ethene was observed	below detectable levels and/or the maximum contaminant level (MCL)	approximately 50 μg/L	~130 µg/L	greater than fifteen-fold	dramatically transformed to cis-1,2-DCE	increased up to an order of magnitude	approximately 6 m	~8 m
